Data on 1 compound can be found in patent publication US20220313656A1, “NEW CLASS OF ANTIBIOTICS HAVING LOW MIC-VALUES TOWARDS DIFFERENT STRAINS OF BACTERIA” (priority 2019, published 2022).

Common to all, as to test: MIC, serial dilution method (CLSI)
The test system of one assay is E. faecium. The assay is classed as cell-based, Enterococcus faecium. To be noted: Enterococcus faecium, 24 h; read-out: MIC. An outline of the steps: (§1)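 Each determination was run twice. Bacteria, diluted 1:100 in Müller Hinton broth, were exposed to compound for 24 hours at 37° C without agitation, and the lowest concentration free of visible growth was recorded.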

For a further assay, the system named is S. aureus CC398. The assay is classed as cell-based, Staphylococcus aureus. The note with it: Staphylococcus aureus, MRSA, 24 h; read-out: MIC. The method, boiled down: as §1
In the next assay the test system is S. aureus USA300. The assay is classed as cell-based, Staphylococcus aureus. The note with it: Staphylococcus aureus, USA300, 24 h; read-out: MIC. The method, boiled down: as §1
The subject of another assay is Escherichia coli E2. The assay is classed as cell-based. The note with it: E. coli E2, ESBL; duplicates a/b. As for the experimental part: The MIC for each compound for each bacteria strain was determined by the serial dilution method following the CLSI guidelines (CLSI Clinical and Laboratory Standards Institute: Performance Standards for Antimicrobial Susceptibility Testing: […] M100-S25. Wayne, Pa., USA; 2015.) All compounds were diluted in autoclaved H2O and stored at 4° C. […] Bacterial inoculums were prepared by inoculating 9 ml of H2O with bacterial colonies from agar plate (Oxoid, Roskilde Denmark) supplemented with bovine blood to a final yield a final density of 10^8 colony forming unit (CFU)/mL using a Sensititre™ Nephelometer (Thermo Scientific, Roskilde, Denmark). These inoculums were each in diluted 1:100 in Müller Hinton (MH) broth (Sigma, Copenhagen, Denmark). From the diluted inoculums 100 μl was transferred to each well in a 96-well plate and mixed with the compound to be MIC determined. The plate was incubated for 24 hours at 37° C. (without shaking). The MIC value was determined as the lowest concentration in which no bacterial growth could be visually detected. All MIC determinations were done in duplicates. […] Since all derivatives are new, no control strains (with reference MIC values) were available.

Another assay deals with E. coli APEC O2. The assay is classed as cell-based, Escherichia coli. To be noted: Escherichia coli, APECO2, 24 h; read-out: MIC. The method, boiled down: as §1
In assay [1] the test system is Staphylococus pseudintermedius. The assay is classed as cell-based, Staphylococcus pseudintermedius. To be noted: Staphylococcus pseudintermedius, 24 h; read-out: MIC. The method, boiled down:
as §1

Another assay concerns E. faecalis. The assay is classed as cell-based, Enterococcus faecalis. The note with it: Enterococcus faecalis, 24 h; read-out: MIC. An outline of the steps:
as §1

For a further assay, the system named is Escherichia coli ESBL1. The assay is classed as cell-based. The note with it: E. coli ESBL1, Tetracycline resistant; duplicates a/b. The method, boiled down:
as §1

Another assay relates to Salmonella enteritidis. The assay is classed as cell-based. The note with it: Salmonella enterica, ENTERITIDIS, 24 h; read-out: MIC. The method, boiled down:
as §1

For the next assay, the system named is Escherichia coli E24. The assay is classed as cell-based. The note with it: E. coli E24, ESBL; duplicates a/b. An outline of the steps:
as §1

In the next assay the test system is Bacillus cereus. The assay is classed as cell-based. The note with it: 24 h, read-out: MIC. The method, boiled down: as §1
The subject of a further assay is Escherichia coli E4. The assay is classed as cell-based. To be noted: E. coli E4, ESBL; duplicates a/b. An outline of the steps:
as §1

A further assay relates to Escherichia coli ESBL46. The assay is classed as cell-based. To be noted: E. coli ESBL46, Tetracycline resistant; duplicates a/b. An outline of the steps: as §1
A further assay deals with Escherichia coli E38. The assay is classed as cell-based. The note with it: E. coli E38, ESBL; duplicates a/b. An outline of the steps:
as §1

The next assay deals with Escherichia coli ESBL37. The assay is classed as cell-based. The note with it: E. coli ESBL37, Tetracycline resistant; duplicates a/b. The method, boiled down:
as §1

For a further assay, the system named is Escherichia coli ESBL28. The assay is classed as cell-based. To be noted: E. coli ESBL28, Tetracycline resistant; duplicates a/b. An outline of the steps: as §1
A further assay relates to Streptococcus equi. The assay is classed as cell-based. The note with it: 24 h, read-out: MIC. An outline of the steps: as §1
The test system of a further assay is Escherichia coli E5. The assay is classed as cell-based. The note with it: E. coli E5, ESBL; duplicates a/b. The method, boiled down: as §1
In another assay the test system is Listeria monocytogenes. The assay is classed as cell-based. To be noted: 24 h, read-out: MIC. The method, boiled down:
as §1

The test system of a further assay is Escherichia coli E6. The assay is classed as cell-based. The note with it: E. coli E6, ESBL; duplicates a/b. An outline of the steps:
as §1

A further assay concerns Escherichia coli ESBL10. The assay is classed as cell-based. The note with it: E. coli ESBL10, Tetracycline resistant; duplicates a/b. The method, boiled down: as §1
In another assay the test system is Escherichia coli ESBL19. The assay is classed as cell-based. The note with it: E. coli ESBL19, Tetracycline resistant; duplicates a/b. The method, boiled down:
as §1

Each structure is given as a SMILES string.

For `CCCCCCCCCCCC[N+](C)(C)CCCN1c2ccccc2Sc2ccc(Cl)cc21.[Br-]` [Compound S7, N-(3-(2-chloro-10H-phenothiazin-10-yl)propyl)-N,N-dimethyldodecan-1-aminium bromide], the MIC with E. faecium was 0.25 µg/mL; with S. aureus CC398, 0.25 µg/mL; in the assay on S. aureus USA300, 0.5 µg/mL; with Escherichia coli E2, 8/4; with E. coli APEC O2, 4 µg/mL; in [1] it was 0.25 µg/mL. The MIC was 0.5 µg/mL in the assay on E. faecalis; 4/4 against Escherichia coli ESBL1; 16 µg/mL in the assay with Salmonella enteritidis; 4/4 in the assay with Escherichia coli E24; 0.25 µg/mL in the assay with Bacillus cereus; 4/4 in the assay with Escherichia coli E4. For the same compound, the MIC is 4/8 against Escherichia coli ESBL46; 4/4 against Escherichia coli E38; 4/4 against Escherichia coli ESBL37; 4/4 in the assay with Escherichia coli ESBL28; 1 µg/mL with Streptococcus equi; 4/4 against Escherichia coli E5. Also, the MIC with Listeria monocytogenes was 0.25 µg/mL; against Escherichia coli E6, 4/4; in the assay with Escherichia coli ESBL10 it was 8/8; against Escherichia coli ESBL19 it was 4/4.
